{
  "source": "patent US5484778A",
  "about": "“Phthalocyanine photosensitizers for photodynamic therapy and methods for their use” (priority 1993, dated 1996)",
  "key": {"[1]": {"tested_on": "human squamous cell carcinoma", "experiment": "PDT of human squamous cell carcinoma in athymic nude mice (Table 9)", "format": "in vivo, Harlen-Sprague Dawley athymic nude mice", "settings": "1.0 mg/kg; for % Tumor Response: 24 hours post illumination; for % Tumor Cure: 7 days post treatment", "description": "A single cell suspension of human squamous cell carcinoma was injected subcutaneously into the back of Harlen-Sprague Dawley athymic nude mice. […]"}, "[2]": {"experiment": "Retention in tumor tissue (pharmacokinetics)", "settings": "in vivo"}, "L5178Y cells": {"tested_on": "L5178Y cells", "experiment": "Induction of apoptosis (DNA fragmentation) in L5178Y-R cells (Table 6)", "format": "cell-based, mouse", "settings": "0.4 μM", "procedure,_shortened": "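Exponentially growing mouse lymphoma L5178Y-R cells loaded 18 hours with phthalocyanine at various concentrations, then irradiated with >600 nm red light (up to 30 kJ/m^2, ~74 W/m^2). DNA isolated 2 hours post-PDT, run on 1.5% agarose; value is minimum PDT dose (concentration × fluence) giving visible DNA ladder.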"}, "[3]": {"tested_on": "Chinese hamster V79-379 cells", "experiment": "Growth delay of V79 cultures after red light (Table 1)", "format": "cell-based", "procedure,_shortened": "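V79-379 lung fibroblasts were pretreated 18 h with phthalocyanines (0.5-1.0 μM final) or 1 μM AlPcCl, then irradiated in HBSS with >600 nm light at 12 kJ/m^2. Cells were counted over 3 days. Growth delay is the time for cell density to regain its level at irradiation, reported as a ratio to same-experiment AlPcCl.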"}, "RIF-1 tumors": {"tested_on": "RIF-1 tumors", "experiment": "PDT of RIF-1 implanted tumors with PcIV and multiple exposures to light (Table 8)", "format": "in vivo, C3H/HeN mice", "settings": "for % of Mice Surviving: 1 mg/kg", "description": "To overcome the regrowth, RIF-1 tumors were implanted in C3H/HeN mice, and the mice were treated with PcIV followed by multiple exposures to light. For multiple exposures to light to be successful, the tumor tissue must retain sufficient levels of the photosensitizer over the exposure period.\nThereafter, the tumors were irradiated with an argon ion pumped dye laser tuned at 675 nm for the total light dose of 135 J/cm^2 (75 mW/cm^2)."}},
  "data": [
    {"compound": "CN(C)CCC[Si](C)(C)O[Si]1(O)n2c3c4ccccc4c2N=C2N=C(N=c4c5ccccc5c(n41)=NC1=NC(=N3)c3ccccc31)c1ccccc12", "note": "(centres unmarked) [Compound IV, HOSiPcOsi(CH3)2)(CH2)3 N(CH3)2]", "values": [
      {"measurement": "% Tumor Response", "setting": "[1]; 35 J/cm^2 675 nm, 15 min", "value": 40, "unit": "%"},
      {"measurement": "% Tumor Cure", "setting": "[1]; 35 J/cm^2 675 nm, 15 min", "value": 0, "unit": "%"},
      {"measurement": "% Tumor Response", "setting": "[1]; 75 J/cm^2 675 nm, 15 min", "value": 80, "unit": "%"},
      {"measurement": "% Tumor Cure", "setting": "[1]; 75 J/cm^2 675 nm, 15 min", "value": 60, "unit": "%"},
      {"measurement": "% Tumor Response", "setting": "[1]; 135 J/cm^2 675 nm, 15 min", "value": 100, "unit": "%"},
      {"measurement": "% Tumor Cure", "setting": "[1]; 135 J/cm^2 675 nm, 15 min", "value": 100, "unit": "%"},
      {"measurement": "% Tumor Response", "setting": "[1]; no light", "value": 0, "unit": "%"},
      {"measurement": "% Tumor Cure", "setting": "[1]; no light", "value": 0, "unit": "%"},
      {"measurement": "retention in tumor tissue after administration", "setting": "[2]", "value": "≥ 7", "unit": "days"},
      {"measurement": "Minimum Demonstrated Condition to induce apoptosis: C × F", "setting": "L5178Y cells", "value": 1.2, "unit": "μm × kJ/m^2"},
      {"measurement": "Minimum Demonstrated Condition to induce apoptosis: Fluence", "setting": "L5178Y cells", "value": 3.0, "unit": "kJ/m^2"},
      {"measurement": "Growth Delay, efficiency relative to 1 μM AlPcCl", "setting": "[3]; 0.5 μM, 18 h, 12 kJ/m^2 red light", "value": "> 3"},
      {"measurement": "inhibition of V79 culture growth (in words)", "setting": "[3]; red light 12 kJ/m^2, three day period", "value": "substantial inhibition"},
      {"measurement": "% of Mice Surviving", "setting": "RIF-1 tumors; 360 h", "value": 100, "unit": "%"},
      {"measurement": "% of Mice Surviving", "setting": "RIF-1 tumors; 2880 h", "value": 0, "unit": "%"},
      {"measurement": "% of Mice Surviving", "setting": "RIF-1 tumors; DPPC liposomes, 30 days, exposure day 2", "value": 100, "unit": "%"},
      {"measurement": "% of Mice Surviving", "setting": "RIF-1 tumors; corn oil, 15 days, exposure day 2", "value": 100, "unit": "%"},
      {"measurement": "% of Mice Surviving", "setting": "RIF-1 tumors; corn oil, 15 days, exposure days 2-6", "value": 100, "unit": "%"},
      {"measurement": "tumor regrowth", "setting": "RIF-1 tumors; DPPC liposomes, 30 days after PDT, irradiated only one or two times", "value": "Tumor regrowth occurred 30 days after photodynamic therapy"},
      {"measurement": "tumor regrowth", "setting": "RIF-1 tumors; DPPC liposomes, 120 days after PDT, three to five exposures", "value": "No tumor regrowth occurred even at 120 days"},
      {"measurement": "tumor regrowth", "setting": "RIF-1 tumors; DPPC liposomes, 300 days after light treatment", "value": "no evidence of tumor regrowth"},
      {"measurement": "tumor cure", "setting": "RIF-1 tumors; DPPC liposomes, irradiated three, four or five times at 24 hour interval", "value": "complete tumor cure was evident"},
      {"measurement": "tumor regrowth", "setting": "RIF-1 tumors; corn oil, 15 days after PDT, all multiple exposure protocols", "value": "regrowth of tumors was evident 15 days after photodynamic therapy in all the multiple exposure protocols"}
    ]}
  ]
}
